Entries after “also recorded” stand apart in the source; their conditions may differ.

The nature of data set [1]: Ex vivo brain penetration in mice (GC and binding). Conditions: for half-life: mice brain.
In the next data set the test system is cholesterol-fed rabbits. Kind of data set: Aβ immunoreactivity in cortex of hypercholesterolemic rabbits. Format: in vivo, New Zealand white rabbits. Conditions: 1 mg/kg, s.c., 10 weeks.
A further data set concerns the target muscarinic receptor. Kind of data set: [3H]OXO-M competition binding. To be noted: rat cortex.
Data set [2] deals with mAChR receptors, Rat Cortical (CTX) Membranes. Format: binding. To be noted: read-out: Ki, QNB.
A further data set concerns the target Serotonin, 5HT3 (Homo sapiens, UniProt P46098). Kind of data set: Serotonin 5HT3 binding. Conditions: at 10^−4 M.
The test system of data set [3] is adrenergic, benzodiazepine, dopamine, GABA, glutamate, glycine, histamine, nicotinic, serotonin sites, ChAT, GAD, MAO-A, MAO-B. Kind of data set: Binding panel of other receptors and enzymes (AF267B).
A further data set has as its system AF64A-injected rats. Kind of data set: Morris water maze in AF64A-injected rats. Format: in vivo, Sprague-Dawley rats. Here is the method: AF64A or saline-injected (6 months old) Sprague-Dawley rats were tested in the Morris Water Maze (MWM) task. The paradigm used assesses spatial learning abilities in a reference memory regimen, and involves training (days 1–4), transfer test (Probe trial—day 4, 3 min following the last training trial) and reversal test (day 5).
Drugs and PBS were administered once a day for 5 days before starting the behavioral testing, and then for the duration of the 5-day experiment, 30 min before testing.
The three measures, escape latency, path length and swimming speed were analyzed by MANOVA, followed by simple main effects contrast analysis.

The nature of data set [4]: Chronic toxicity up to 13 weeks, rat. Format: in vivo, Wistar rat.
A further data set concerns GSK-3β. In words: GSK-3β activity in rat hippocampal neurons. Format: cell-based. Here is the method:
This study was performed in rat hippocampal primary cell cultures using the methods described by Garrido J L et al. (FASEB J 2002; 16:1982).

For data set [5] the following is noted: mouse, in vivo.
A further data set is described as follows: in vivo. To be noted: rat.
Another data set has as its target T1, M2 mAChR (Homo sapiens, UniProt P08172).
T1 construct: expressed in transfected cells; host or cells: 'modified cell cultures' giving a Ca increase; modification not described
Kind of data set: Intracellular Ca increase in modified cell cultures, M2. Format: cell-based. Conditions: 10^−9–10^−3M.

The next data set concerns the target T2, M3 mAChR (Homo sapiens, UniProt P20309).
T2 construct: expressed in transfected cells
Kind of data set: Arachidonic acid (AA) release, M3. Format: cell-based.

The target of another data set is T3, M5 mAChR (Homo sapiens, UniProt P08912).
T3 construct: expressed in transfected cells
T3 sequence (P08912 whole entry): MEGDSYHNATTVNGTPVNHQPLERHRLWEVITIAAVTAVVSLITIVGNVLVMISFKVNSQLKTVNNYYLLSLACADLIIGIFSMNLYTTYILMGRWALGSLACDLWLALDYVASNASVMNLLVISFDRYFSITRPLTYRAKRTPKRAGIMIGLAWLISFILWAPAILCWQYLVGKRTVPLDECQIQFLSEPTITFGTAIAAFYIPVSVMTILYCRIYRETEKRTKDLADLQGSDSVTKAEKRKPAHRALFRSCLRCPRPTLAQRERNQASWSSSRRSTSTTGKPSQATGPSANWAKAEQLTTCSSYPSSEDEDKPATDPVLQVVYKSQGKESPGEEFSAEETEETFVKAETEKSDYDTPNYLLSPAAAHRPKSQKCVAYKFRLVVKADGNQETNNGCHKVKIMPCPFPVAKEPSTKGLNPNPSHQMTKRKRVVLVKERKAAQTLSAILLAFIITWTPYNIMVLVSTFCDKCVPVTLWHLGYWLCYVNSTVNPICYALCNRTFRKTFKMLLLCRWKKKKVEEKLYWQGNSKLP
In words: Arachidonic acid (AA) release, M5. Format: cell-based.

The target in a further data set is T4, human M1 (Homo sapiens, UniProt P11229).
T4 sequence (P11229 1-460): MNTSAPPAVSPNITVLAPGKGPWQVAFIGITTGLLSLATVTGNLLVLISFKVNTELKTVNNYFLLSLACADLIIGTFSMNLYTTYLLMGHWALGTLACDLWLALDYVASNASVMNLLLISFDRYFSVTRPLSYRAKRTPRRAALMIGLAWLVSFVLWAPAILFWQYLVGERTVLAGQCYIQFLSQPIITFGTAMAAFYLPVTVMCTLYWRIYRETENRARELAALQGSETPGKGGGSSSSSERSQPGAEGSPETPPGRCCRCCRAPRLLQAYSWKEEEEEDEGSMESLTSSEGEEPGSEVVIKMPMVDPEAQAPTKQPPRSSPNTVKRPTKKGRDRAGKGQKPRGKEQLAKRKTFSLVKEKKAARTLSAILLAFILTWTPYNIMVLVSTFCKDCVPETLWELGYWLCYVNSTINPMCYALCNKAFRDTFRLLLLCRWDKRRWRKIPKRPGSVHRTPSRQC
In words: Binding study, M1 (human). To be noted: 10 μm.

The next data set concerns the target M2 (human) (Homo sapiens, UniProt P08172). In words: Binding study, M2 (human). Conditions: 10 μm.
Another data set has as its target hERG-encoded channel (Homo sapiens, UniProt Q12809). Kind of data set: Astemizole (HERG channel) binding assay. Here is the method:
• 1. Astemizole (human ether-a-go-go related gene (HERG) Channel) Binding Assay. […] Isolated Guinea Pig Right Atrium (atrial fibrillation). […] Effects of AF292 (dose 5 mg/kg orally) on cardiac electrophysiological, cardio-haemodynamic in instrumented, awake dogs. Healthy trained and chronically instrumented female Beagle dogs of varying age and ranging in body weight from 9.4 to 12 kg, were used for recording of the cardiovascular parameters: heart rate, diastolic and systolic blood pressure, pressure rate product, LV dp/dt max, LV dp/dt max/pd, LV dp/dt min, cardiac output, stroke volume, systemic vascular resistance and the ECG parameters (PQ-, QRS-, QT-, QTcBazett-(QTcB), QTcFridericia-(QTcF) and QTcVan de Water-(QTcVdW) interval duration and QT-dispersion. During the last 18 hours prior to the experiments, the dogs had no access to food. Water was available ad libitum. At the beginning of each experiment, control values of the various parameters were recorded for at least 30 min. Thereafter, 5 mg/kg of AF292 (n=4) or the corresponding volume of the solvent (n=4) was administered orally by gavage. The various haemodynamic parameters were recorded continuously for 4 hours thereafter.

Another data set concerns the target CYP1A2 (Homo sapiens, UniProt P05177). Kind of data set: Cytochrome P450 inhibition, CYP1A2. Format: in vitro ADME. Conditions: up to 10 μM. Here is the method: (§1) Cytochrome P450 activity can be an indicator for potential drug-drug interactions. AF292 was evaluated in a microtiter plate assay for P450 inhibition.
The target in the next data set is CYP2C9 (Homo sapiens, UniProt P11712). In words: Cytochrome P450 inhibition, CYP2C9. Format: in vitro ADME. To be noted: up to 10 μM. Here is the method:
as §1

In a further data set the target is M3 (human) (Homo sapiens, UniProt P20309). In words: PI hydrolysis in cells transfected with human M3. Format: cell-based. Details: expressed in transfected cells.
M3 (human), sequence (P20309 whole entry): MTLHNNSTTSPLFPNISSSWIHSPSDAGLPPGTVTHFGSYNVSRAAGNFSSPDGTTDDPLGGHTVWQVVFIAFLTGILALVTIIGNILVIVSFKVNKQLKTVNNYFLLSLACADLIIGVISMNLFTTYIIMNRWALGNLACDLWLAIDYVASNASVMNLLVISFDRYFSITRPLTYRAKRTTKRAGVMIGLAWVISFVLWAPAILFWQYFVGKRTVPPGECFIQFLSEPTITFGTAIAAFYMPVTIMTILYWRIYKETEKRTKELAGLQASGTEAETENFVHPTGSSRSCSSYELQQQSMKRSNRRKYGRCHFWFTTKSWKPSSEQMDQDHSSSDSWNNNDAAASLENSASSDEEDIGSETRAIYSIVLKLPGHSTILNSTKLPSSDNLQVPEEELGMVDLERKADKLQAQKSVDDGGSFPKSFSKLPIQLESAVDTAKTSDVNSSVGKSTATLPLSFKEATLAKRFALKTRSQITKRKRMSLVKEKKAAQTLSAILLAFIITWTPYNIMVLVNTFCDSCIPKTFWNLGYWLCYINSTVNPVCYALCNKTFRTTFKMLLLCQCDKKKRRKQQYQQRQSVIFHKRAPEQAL

T2 sequence (P20309 whole entry): as above
T1 sequence (P08172 whole entry): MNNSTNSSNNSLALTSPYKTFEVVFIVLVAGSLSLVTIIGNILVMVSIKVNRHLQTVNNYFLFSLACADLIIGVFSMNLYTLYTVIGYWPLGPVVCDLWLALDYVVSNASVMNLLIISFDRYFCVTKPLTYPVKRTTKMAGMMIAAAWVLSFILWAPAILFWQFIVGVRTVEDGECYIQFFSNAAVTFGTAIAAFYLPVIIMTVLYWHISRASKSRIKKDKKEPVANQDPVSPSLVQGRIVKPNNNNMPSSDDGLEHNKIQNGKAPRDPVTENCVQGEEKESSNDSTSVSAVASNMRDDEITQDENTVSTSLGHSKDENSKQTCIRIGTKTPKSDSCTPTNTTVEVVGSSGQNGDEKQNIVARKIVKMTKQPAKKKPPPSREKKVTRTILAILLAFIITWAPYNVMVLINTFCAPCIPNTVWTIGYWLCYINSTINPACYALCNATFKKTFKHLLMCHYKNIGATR
CYP1A2, sequence (P05177 whole entry): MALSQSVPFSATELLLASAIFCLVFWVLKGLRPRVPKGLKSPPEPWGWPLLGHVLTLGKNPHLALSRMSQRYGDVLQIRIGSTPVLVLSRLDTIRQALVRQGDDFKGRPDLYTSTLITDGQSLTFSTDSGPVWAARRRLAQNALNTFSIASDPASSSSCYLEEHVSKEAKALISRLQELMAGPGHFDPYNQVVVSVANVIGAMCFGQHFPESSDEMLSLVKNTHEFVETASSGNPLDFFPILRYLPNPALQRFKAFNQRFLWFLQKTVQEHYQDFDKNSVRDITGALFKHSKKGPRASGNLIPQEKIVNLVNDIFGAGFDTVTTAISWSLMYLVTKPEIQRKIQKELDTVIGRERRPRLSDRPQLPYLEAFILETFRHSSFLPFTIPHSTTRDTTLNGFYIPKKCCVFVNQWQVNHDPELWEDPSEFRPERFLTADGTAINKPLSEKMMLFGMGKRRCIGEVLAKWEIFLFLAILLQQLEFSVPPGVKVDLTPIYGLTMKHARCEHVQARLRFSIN
hERG-encoded channel, sequence (Q12809 whole entry): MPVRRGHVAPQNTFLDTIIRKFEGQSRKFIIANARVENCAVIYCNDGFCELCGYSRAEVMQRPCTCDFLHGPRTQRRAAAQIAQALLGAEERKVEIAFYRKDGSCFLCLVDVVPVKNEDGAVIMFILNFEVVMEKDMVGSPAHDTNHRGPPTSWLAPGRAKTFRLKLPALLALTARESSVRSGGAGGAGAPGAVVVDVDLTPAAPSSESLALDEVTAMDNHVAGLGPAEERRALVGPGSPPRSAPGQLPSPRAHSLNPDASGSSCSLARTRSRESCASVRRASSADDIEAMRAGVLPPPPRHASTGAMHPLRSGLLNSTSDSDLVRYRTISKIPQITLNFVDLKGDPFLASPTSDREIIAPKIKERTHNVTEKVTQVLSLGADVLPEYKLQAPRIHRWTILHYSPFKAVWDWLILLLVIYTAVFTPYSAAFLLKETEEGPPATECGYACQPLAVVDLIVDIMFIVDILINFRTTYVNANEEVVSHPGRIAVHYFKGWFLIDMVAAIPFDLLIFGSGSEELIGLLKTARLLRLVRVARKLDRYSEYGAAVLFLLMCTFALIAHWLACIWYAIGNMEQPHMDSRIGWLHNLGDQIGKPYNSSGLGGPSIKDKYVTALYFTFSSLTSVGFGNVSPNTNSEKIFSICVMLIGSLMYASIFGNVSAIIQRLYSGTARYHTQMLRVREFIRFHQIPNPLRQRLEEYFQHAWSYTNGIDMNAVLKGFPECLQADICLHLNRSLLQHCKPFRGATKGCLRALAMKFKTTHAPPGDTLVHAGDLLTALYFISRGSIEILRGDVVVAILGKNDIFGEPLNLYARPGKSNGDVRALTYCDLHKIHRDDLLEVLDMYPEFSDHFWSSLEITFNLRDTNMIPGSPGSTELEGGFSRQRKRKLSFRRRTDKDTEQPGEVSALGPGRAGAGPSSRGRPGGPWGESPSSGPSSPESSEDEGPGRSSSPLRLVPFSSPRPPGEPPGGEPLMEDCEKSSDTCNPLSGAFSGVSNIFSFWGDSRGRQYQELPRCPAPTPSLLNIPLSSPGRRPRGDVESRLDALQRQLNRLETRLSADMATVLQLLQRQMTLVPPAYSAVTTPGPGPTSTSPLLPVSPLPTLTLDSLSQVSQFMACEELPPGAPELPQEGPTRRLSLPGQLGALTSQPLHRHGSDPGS
Serotonin, 5HT3, sequence (P46098 24-478): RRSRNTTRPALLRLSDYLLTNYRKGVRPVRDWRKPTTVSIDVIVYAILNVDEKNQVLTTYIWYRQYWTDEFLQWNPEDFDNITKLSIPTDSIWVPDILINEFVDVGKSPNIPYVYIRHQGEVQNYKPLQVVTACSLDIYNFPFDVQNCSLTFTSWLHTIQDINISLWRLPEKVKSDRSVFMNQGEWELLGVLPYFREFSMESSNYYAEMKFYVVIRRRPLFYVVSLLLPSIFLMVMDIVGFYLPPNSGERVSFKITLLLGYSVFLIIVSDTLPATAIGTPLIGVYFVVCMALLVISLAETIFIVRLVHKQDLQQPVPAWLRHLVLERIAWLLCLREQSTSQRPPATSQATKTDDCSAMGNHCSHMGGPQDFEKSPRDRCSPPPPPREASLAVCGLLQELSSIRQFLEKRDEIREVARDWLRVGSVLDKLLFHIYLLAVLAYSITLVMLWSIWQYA
CYP2C9, sequence (P11712 whole entry): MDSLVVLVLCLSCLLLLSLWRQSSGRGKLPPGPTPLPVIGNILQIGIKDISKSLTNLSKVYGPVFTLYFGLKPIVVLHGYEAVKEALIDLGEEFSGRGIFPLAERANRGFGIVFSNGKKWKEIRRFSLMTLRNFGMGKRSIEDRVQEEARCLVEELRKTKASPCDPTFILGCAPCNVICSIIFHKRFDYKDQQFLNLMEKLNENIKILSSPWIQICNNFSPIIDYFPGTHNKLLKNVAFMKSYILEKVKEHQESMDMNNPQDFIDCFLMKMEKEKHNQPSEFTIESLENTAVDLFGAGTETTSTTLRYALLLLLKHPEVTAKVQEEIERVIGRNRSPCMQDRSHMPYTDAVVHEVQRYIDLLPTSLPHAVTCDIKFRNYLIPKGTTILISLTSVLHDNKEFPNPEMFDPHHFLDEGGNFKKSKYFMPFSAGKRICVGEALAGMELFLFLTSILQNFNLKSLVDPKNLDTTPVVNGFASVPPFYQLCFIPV
M2 (human), sequence (P08172 whole entry): as the sequence (P08172 whole entry) above

On to `CC1=NCC2(CCN(C)CC2)S1` [AF150(S), 2,8-Dimethyl-1-thia-3,8-diaza-spiro[4.5]dec-2-ene], for which the brain penetration time in data set [1] (iv) is 1 min. Moreover, the MRT – broadly, a mean duration of stay, worked out from the concentration-time curve – in data set [1] (mouse, in vivo, 100 μmole/kg) is 50 min. Also, the half-life – broadly, the time needed for the level to fall by half in the phase considered – in data set [1] (mouse, in vivo, iv, T1/2, first phase) came out at 21 min; in data set [1] (mouse, in vivo, iv, T1/2, second phase), 53 min.
In the case of `CC[C@@H]1SC2(CCN(C)CC2)NC1=O` [AF267B, (S)-2-ethyl-8-methyl-1-thia-4,8-diaza-spiro[4.5]decan-3-one], the “Reduction of intensity of the immunoreactivity” value with cholesterol-fed rabbits was “approximately 50%”. For the same compound, the “Reduction of number of neurons expressing Aβ immunoreactivity” value with cholesterol-fed rabbits is listed as 25–30%. For the same compound, the Ki (as a rule, the equilibrium dissociation constant of an inhibitor or competing ligand from its target) on muscarinic receptor worked out at 1.62 ± 0.34 µM; in data set [2], 49.6 ± 9 µM. For the same compound, the inhibition (in general, the share of the control response that was lost under treatment) at 100 µM at Serotonin, 5HT3 is 51.3%. Besides, in data set [3], the Binding to panel result is reported as “no binding at all”. Moreover, the Reversal test result in the data set with AF64A-injected rats (1 mg/kg) is reported as “tendency for improvement”; in the data set with AF64A-injected rats (3 mg/kg) it was “tendency for impairment”. For the same compound, the “Training, escape latency” value in the data set on AF64A-injected rats (1 mg/kg) was “tendency for improvement”. Also, the Training performance entry with AF64A-injected rats (3 mg/kg) was “tended to impair performance”. Besides, in the data set with AF64A-injected rats (0.3, 1, 3 mg/kg po), the “Learning (training)” value was “no significant effect on learning”. Further, the “Probe trial, spatial bias (escape latency)” value with AF64A-injected rats (all doses) is “complete spatial bias”. Moreover, the “Dose at which effects are seen” value in data set [4] is greater than 40 mg/kg. Besides, the “GSK-3β activity vs. control in presence of Aβ fibrils” value in the data set with GSK-3β (10 μM, Aβ fibrils (10 μM) alone 370%) was found to be 150%. In addition, the “Decrease of GSK-3β activity” value in the data set on GSK-3β (100 μm) is on record as 60%. For the same compound, the “time detected in the brain after dosing” value in [5] was 2 to 240 min. Moreover, the Kp in “in vivo” (female, iv, 1 mg/kg) was 1.32; in the data set “in vivo” (female, po, 2 mg/kg), 1.25; in “in vivo” (male, iv, 1 mg/kg), 1.79; in the data set “in vivo” (male, po, 2 mg/kg) it was 2.43. In the data set “physchem”, the pKa (commonly the pH at which an ionisable group is half protonated) was 7.8.
Consider `CC[C@@H]1SC2(CCNCC2)NC1=O` [AF292, (S)-2-Ethyl-1-thia-4,8-diaza-spiro[4.5]decan-3-one], for which the “Agonist activity at M2” value on M2 mAChR was “inactive as an agonist; also recorded: M2 mAChR - no effects as agonist”. Moreover, the “AA release, M3 mAChR, agonist activity” value at M3 mAChR is “inactive as an agonist; also recorded: PI., AA: M3 mAChR: Not active as agonist”. The “AA release, M5 mAChR, agonist activity” value on M5 mAChR is “inactive as an agonist; also recorded: PI, AA: M5 mAChR - no effect as agonist”. Also, the figures for the “Binding, %” value on human M1 and on M2 (human) were 55% and 61%, respectively. Moreover, on hERG-encoded channel, the “[3H]-Astemizole binding inhibition” value is “inactive”. For the same compound, at CYP1A2, the “Inhibition of CYP1A2” value is listed as “did not induce significant inhibition”. Further, the “Inhibition of CYP2C9” value at CYP2C9 is “did not induce significant inhibition”. In addition, the “PI turnover vs. carbachol, M3” value on M3 (human) (human M3) is recorded as “No activity; also recorded: PI., AA: M3 mAChR: Not active as agonist”. In addition, the Kb on M3 (human) (read-out: pKb, M3 antagonist (converted)) is 0.66 µM.

Values taken from US7049321B2, “Methods and pharmaceutical compositions for treatment of central and peripheral nervous system disorders and compounds useful therefor” (Israel Institute for Biological Research, priority 2002, dated 2006).
